One series is described as follows: oscillatory rheometry. It counts as physicochemical. The settings on record: 10 mM; 1 Hz; 25 °C. The protocol:
His–Leu–^DLeu–Ile–His–Leu–^DLeu–Ile (Scheme 1) was synthesized in solid phase and purified by reverse-phase HPLC, following published procedures. Peptide identity and purity was confirmed by ^1H-NMR and electrospray ionization (ESI)-MS (see Supplementary Materials). […] A pH change to neutral was then used to trigger fibrillization, which, at higher concentrations, led to the formation of self-supportive hydrogels, with a minimum gelling concentration (mgc) of 10 mM. The viscoelastic properties of the hydrogel were assessed by oscillatory rheometry (see Supplementary Materials). At mgc, the peptide gelled immediately and reached a G′ of 1 kPa, which remained stable over time. Frequency sweeps confirmed G′ > G″, with both values being independent of applied frequency, as expected for a stable hydrogel. Stress sweeps confirmed a linear viscoelastic region until 1 Pa, with a gel-to-sol transition occurring above 10 Pa.
Dynamic time sweep rheological analysis was conducted on a Malvern Kinexus Ultra Plus Rheometer (Alfatest, Milan, Italy) with a 20-mm stainless-steel parallel plate geometry. […] Samples were prepared in situ and immediately analyzed with a gap of 1 mm. Time sweeps were recorded using a frequency of 1 Hz and a controlled stress of 0.50 Pa. Frequency sweeps were recorded using a controlled stress of 0.50 Pa, and then stress sweeps were recorded using a frequency of 1 Hz.

Series [1] is described as follows: water solubility (observation). The format is physicochemical. The settings on record: neutral pH.
For series [2] the following is noted: pH 7.4; without Zn2+; cited from earlier work. The text has this:
Table 2 Comparison of catalytic performance with literature data on short peptides without Zn^2+. | column: kcat/KM (s^−1M^−1)

The conditions of series [3]: cited from earlier work. The text has this:
However, at present, it is still not possible to predict exactly the performance of a de novo designed peptide. Amongst the various approaches to achieve a self-assembling short peptide, an attractive strategy features the inclusion of both D- and L-amino acids at specific positions along a heterochiral sequence, whereby nanostructured hydrogels can be formed even with just three amino acids, while their homochiral isomers typically precipitate in water. These supramolecular systems feature amphipathic assemblies, whereby the different stereoconfiguration allows displaying hydrophobic s ...

Non-standard residues stand in square brackets, D forms with d. Residues, ends and D or L forms follow the SMILES beside them.

Turning to `CC[C@H](C)[C@H](NC(=O)[C@@H](CC(C)C)NC(=O)[C@H](CC(C)C)NC(=O)[C@H](Cc1c[nH]cn1)NC(=O)[C@@H](NC(=O)[C@@H](CC(C)C)NC(=O)[C@H](CC(C)C)NC(=O)[C@@H](N)Cc1c[nH]cn1)[C@@H](C)CC)C(=O)O` [His–Leu–^DLeu–Ile–His–Leu–^DLeu–Ile] (H-HL[dL]IHL[dL]I-OH), in the series “oscillatory rheometry”, the “gel-to-sol transition (stress sweep)” value is given as “above 10 Pa”. For the same compound, the water solubility entry in series [1] was “limited water solubility”.
Regarding “H2KLLLAAA(Nε-palmytoyl)K-NH2 [peptide amphiphile reported by Guler and Stupp]”, the kcat/KM in series [2] is reported as 20 s^−1M^−1.
“HSGQQKFQFQFEQQ [self-assembling His peptide, literature catalyst]”: in series [2], the kcat/KM was 0.09 s^−1M^−1.
As for His–^DPhe–^DPhe, the “concentration of hydrogel formation” value in series [3] is 50000 µM.

Source of the values: paper PMC7411710, “Biocatalysis of D,L-Peptide Nanofibrillar Hydrogel” (Molecules, 2020).
